Reference: patent US10421743B2, “Tetrahydroisoquinolines as PRMT5 inhibitors” (CTXT PTY LTD, priority 2016, dated 2019)
Like-named read-outs stand apart in the source and are kept apart here.

How the values were obtained:
[1] = biological target: Full-length PRMT5 enzyme co-expressed with His6-MEP50 (Homo sapiens (Human), UniProt O14744); assay: PRMT5 Biochemical Assay (Transcreener EPIGEN methyltransferase, fluorescence polarisation); conditions: histone H4 derived peptide substrate 1 μM, 1 μM S-Adenosyl methionine, 4 hours at 37 degree Celsius
Sequence of Full-length PRMT5 enzyme co-expressed with His6-MEP50 (O14744 whole entry): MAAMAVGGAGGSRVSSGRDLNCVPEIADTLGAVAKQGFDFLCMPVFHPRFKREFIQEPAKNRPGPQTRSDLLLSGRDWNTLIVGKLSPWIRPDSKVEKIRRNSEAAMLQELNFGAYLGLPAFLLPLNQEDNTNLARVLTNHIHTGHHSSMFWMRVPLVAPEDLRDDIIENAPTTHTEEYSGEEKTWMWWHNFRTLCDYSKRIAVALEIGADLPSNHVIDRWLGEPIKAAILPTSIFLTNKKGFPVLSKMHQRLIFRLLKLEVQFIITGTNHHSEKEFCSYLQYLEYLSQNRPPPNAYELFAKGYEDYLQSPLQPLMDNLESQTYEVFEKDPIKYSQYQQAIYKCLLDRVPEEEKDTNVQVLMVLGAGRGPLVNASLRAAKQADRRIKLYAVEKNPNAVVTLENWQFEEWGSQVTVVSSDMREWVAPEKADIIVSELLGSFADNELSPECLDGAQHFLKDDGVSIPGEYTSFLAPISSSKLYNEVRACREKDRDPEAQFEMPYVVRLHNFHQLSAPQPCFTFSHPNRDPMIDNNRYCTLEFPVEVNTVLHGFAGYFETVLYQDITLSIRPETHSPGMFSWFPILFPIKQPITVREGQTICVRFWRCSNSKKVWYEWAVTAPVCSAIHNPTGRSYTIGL
Sequence of Full-length PRMT5 enzyme co-expressed with His6-MEP50 (Q9BQA1 whole entry partner): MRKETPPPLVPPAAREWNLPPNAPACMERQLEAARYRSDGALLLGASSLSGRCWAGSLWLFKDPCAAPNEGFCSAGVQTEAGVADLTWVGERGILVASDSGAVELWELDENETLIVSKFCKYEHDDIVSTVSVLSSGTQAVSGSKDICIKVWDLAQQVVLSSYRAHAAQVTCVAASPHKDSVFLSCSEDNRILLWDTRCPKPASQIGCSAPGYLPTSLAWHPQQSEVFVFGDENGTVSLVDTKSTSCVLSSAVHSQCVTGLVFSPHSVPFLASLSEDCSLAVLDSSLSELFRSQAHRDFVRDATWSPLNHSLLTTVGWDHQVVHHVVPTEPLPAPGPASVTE
Procedure: Compounds of the Invention may be Tested for In Vitro Activity in the Following Assay:
A histone H4 derived peptide is used as substrate (amino acid sequence: […]NH2). Full-length PRMT5 enzyme (NCBI Reference sequence NP_006100.2) was co-expressed with His6-MEP50 in insect cells and purified via Nickel immobilized metal affinity and gel filtration chromatography (“the enzyme”).
The 6 μL reactions are run in Greiner brand black 384-well low volume assay plates. All reactions contained assay buffer (phosphate buffered saline, 0.01% (v/v) Tween-20, 0.01% (w/v) albumin from chicken egg white, 1 mM Dithiothreitol, 1 μM peptide substrate, 1 μM S-Adenosyl methionine, and 15 ng/reaction enzyme, with the enzyme being omitted from negative control reactions. Compounds were added in a volume of 100 nL from dilution series prepared in DMSO, positive and negative control reactions receiving the same volume DMSO without compound. The plates were sealed with adhesive seals and incubated for 4 hours at 37 degree Celsius. Reaction progress was measured using the Transcreener™ EPIGEN methyltransferase assay (BellBrook Labs, Madison, Wis.) as recommended by the manufacturer. To each reaction 2 μL detection mix were added, containing coupling enzymes, fluorescence polarisation tracer, and AMP antibody. Plates were incubated for 90 minutes before being read on a Perkin Elmer EnVision™ plate reader in fluorescence polarisation mode. IC50 values were obtained from the raw readings by calculating percent inhibition (% I) for each reaction relative to controls on the same plate (% I=(I−CN)/(CP−CN) where CN/CP are the averages of the negative/positive reactions, respectively), then fitting the % I data vs. compound concentration [I] to % I=(A+((B−A)/(1+((C/[I])^D)))) where A is the lower asymptote, B is the upper asymptote, C is the IC50 value, and D is the slope.

[2] = tested on: PRMT5 (symmetric dimethylation of arginine (SDMA) in MCF-7 cells); assay: PRMT5 Cell Target Engagement (TE) Assay (SDMA, high content imaging); assay type: cell-based; conditions: Homo sapiens, MCF7, 72 h, treated for 3 days, top compound concentration of 10000 nM
Description: PRMT5 Cell Target Engagement (TE) Assay
The PRMT5 TE assay is a biomarker assay for identifying compounds that inhibit symmetric dimethylation of arginine (SDMA) of PRMT5 substrates. This assay detects symmetrically dimethylated nuclear proteins using high content imaging technology. Detection of the expression of symmetrically dimethylated nucleo proteins is through a mixture of primary rabbit monoclonal antibodies to SDMA (CST 13222), which in turn recognized by an Alexafluor 488 dye-conjugated anti-rabbit IgG secondary antibody. The IN Cell Analyzer 2200 measures nuclear Alexafluor 488 fluorescent dye intensity that is directly related to the level of expression of symmetrically dimethylated nuclear proteins at the single cell level. Nuclear AF488 dye intensities are compared to the mean value for DMSO treated cells […] to report percent of inhibition for each compound-treated well.
In this assay, the cell potency (EC50) of each compound was determined from a ten point (1:3 serial dilution; top compound concentration of 10000 nM) titration curve using the following outlined procedure. Each well of a BD falcon collagen coated black/clear bottom 384-well plate was seeded with 4000 MCF-7 cells and allowed to attach for 5 hours. Media from cell plate was removed at 0.5 mm above the bottom of the plate and replaced with 30 μL of fresh media containing 1.2× compounds in 0.1% DMSO. Cells were treated for 3 days in 37° C. CO2 incubator. On day 3, cells were fixed with Cytofix, permeabilized with 0.4% Triton-X-100/Cytofix, and washed with D-PBS without Ca/Mg. Cells were blocked with Licor Odessey blocking reagent for one hour at room temperature, followed by incubation with anti-SDMA (1:1000) antibody at 4° C. overnight. 1° antibody was removed, followed by three washings with DPBS without Ca/Mg and 0.05% Tween20. Hoechst (5 μg/ml), Cell Mask deep stain (1:2000) and Alexa488-conjugated goat anti-rabbit IgG (2 μg/mL) was added for 1 hour at room temperature. A final washing step (three washes) was performed before sealing plate for imaging on In Cell Analyzer 2200. Images from analyzer were uploaded to Columbus (at WP) for image analysis. IC50 values were determined by 4 parameters robust fit of percent fluorescence units vs. (Log10) compound concentrations.

[3] = tested on: PRMT5 (symmetrical dimethylation of arginine in TE11 cells); assay: PRMT5 Biomarker Assay (symmetrical dimethylation of arginine, Di-Methyl Histone H4 Arginine 3); assay type: cell-based; conditions: Homo sapiens, TE-11, 72 hours incubation, anti-Di-Methyl Histone H4 Arginine 3 antibody
Procedure: Compounds of the Invention may be Tested for Potency to Inhibit Symmetrical Dimethylation of Arginine in the Following Assay:
The cell line TE11 was seeded at a density of 6,000 cells per well in 96 well optical quality tissue culture plates in DME medium and 10% foetal bovine serum, and allowed to adhere for 5 hours under standard culture conditions (37 degree Celsius, 5% CO2). Compound dilutions prepared in DMSO were added to the medium, with negative control wells reserved for treatment with DMSO only and maximum inhibition controls receiving a potent PRMT5 inhibitor compound at 1 μM concentration. After incubation for 72 hours, the cells were fixed with 3.7% formaldehyde in PBS for 30 minutes at room temperature, washed with phosphate buffer saline and blocked with Odyssey blocking buffer (LI-COR, Lincoln, Nebr.). Rabbit anti-Di-Methyl Histone H4 Arginine 3 specific antibody (Epigentek) in Odyssey blocking buffer was added and incubated for 14 hours at 4 degree Celsius. After washing, anti-rabbit secondary antibody labelled with Alexa647 dye (LifeTechnologies) and Hoechst 33342 (1 μg/mL, SigmaAldrich) were added for 1 hour incubation. Plates were washed and read on a PerkinElmer Envision 2103 in fluorescence intensity scanning mode (24 scans across the well area). The plates were imaged on a PerkinElmer Phenix high content imaging platform. Using a Columbus image analysis pipeline, individual nuclei were located by Hoechst 33342 stain and the methylation level was calculated from the Alexa647-related intensity in the same area. IC50 values were obtained from the mean Alexa647-related intensity per cell by calculating percent inhibition (% I) for each well relative to controls on the same plate (% I=(I−CN)/(CP−CN) where CN/CP are the averages of the negative/maximum inhibition controls, respectively), then fitting the % I data vs. compound concentration [I] to % I=(A+((B−A)/(1+((C/[I])^D)))) where A is the lower asymptote, B is the upper asymptote, C is the IC50 value, and D is the slope.

[4] = biological target: Full-length (FL)-PRMT5-MEP50 enzyme complex (Homo sapiens (Human), UniProt O14744); assay: PRMT5-MEP50 Enzyme Methylation Assay (SAMDI); assay type: biochemical; conditions: 0.5 nM PRMT5-MEP50, 75 nM biotinylated H4R3(Me1) peptide, 15 μM SAM, 150 minutes at 37° C.
Sequence of Full-length (FL)-PRMT5-MEP50 enzyme complex (O14744 whole entry): as the sequence (O14744 whole entry) above
Sequence of Full-length (FL)-PRMT5-MEP50 enzyme complex (Q9BQA1 whole entry partner): as the sequence (Q9BQA1 whole entry partner) above
Procedure: PRMT5-MEP50 Enzyme Methylation Assay
PRMT5/MEP50 biochemical assay is a direct measurement of the methylation activity of the enzyme complex on a short peptide substrate derived from the N-terminus of H4 histone. Methylation experiment is performed with recombinant protein. The assessment of inhibitory effect (IC50) of small molecules is measured by the effectiveness of the compounds to inhibit this reaction.
In this assay, the potency (IC50) of each compound was determined from a twenty-point (1:2 serial dilution; top compound concentration of 100000 nM) titration curve using the following outlined procedure. To each well of a white ProxiPlus 384 well-plate, 100 nL of compound (1% DMSO in final assay volume of 10 μL) was dispensed, followed by the addition of 8 μL of 1× assay buffer (50 mM Bicine pH 8.0, 1 mM DTT, 0.004% Tween20, 0.01% BSA) containing 0.5 nM of Full-length (FL)-PRMT5-MEP50 enzyme complex (recombinant proteins from baculovirus-transfected Sf21 cells: FL-PRMT5; MW=[…] and FL-MEP50; MW=38614). Plates were sealed and placed in a 37° C. humidified chamber for 30 minutes pre-incubation with compounds. Subsequently, each reaction was initiated by the addition of 2 μL 1× assay buffer containing 75 nM biotinylated H4R3(Me1) peptide, and 15 μM S-(5′-Adenosyl)-L-Methionine Chloride (SAM). The final reaction in each well of 10 μL consists of 0.5 nM PRMT5-MEP50,75 nM biotinylated-peptide, and 15 μM SAM. Methylation reactions were allowed to proceed for 150 minutes in a sealed plate at 37° C. Reactions were immediately quenched by the addition of 1 μL of 10% formic acid. Plates were then frozen and shipped to SAMDI™ Tech Inc. to determine the percent conversion from […]. IC50 values were determined by 7 parameters biphasic fit model plotting the percent product conversion vs. (Log10) compound concentrations.

[5] = Enzyme Methylation Assay (EC50—1, nM), first EC50 of biphasic fit
[6] = second EC50 of biphasic fit, read-out: Enzyme Methylation Assay (EC50—2)

COc1ccc2c(c1)CN[C@H]([C@H](O)CNC(=O)c1ccc(C(=O)N3C4CCC3COC4)cc1)C2 [Example 2, 4-(3-Oxa-8-azabicyclo[3.2.1]octane-8-carbonyl)-N—((R)-2-hydroxy-2-((S)-7-methoxy-1,2,3,4-tetrahydroisoquinolin-3-yl)ethyl)benzamide]
IC50 [1]: 0.018 µM | EC50 [2]: 0.017 µM | IC50 [3]: 0.0004 µM | EC50 [4, 5]: 0.62 nM | EC50 [4, 6]: 126 nM

CCOc1cc(C(=O)N2C3CCC2COC3)ccc1C(=O)NC[C@@H](O)[C@@H]1Cc2ccccc2CN1C [Example 3, 4-(3-Oxa-8-azabicyclo[3.2.1]octane-8-carbonyl)-2-ethoxy-N—((R)-2-hydroxy-2-((S)-2-methyl-1,2,3,4-tetrahydroisoquinolin-3-yl)ethyl)benzamide 2,2,2-trifluoroacetate]
IC50 [1]: 1.01 µM | EC50 [2]: 5.44 µM | IC50 [3]: 0.00712 µM | EC50 [4, 5]: 47 nM | EC50 [4, 6]: 574 nM
